From ChEMBL document CHEMBL1201862, “PubChem BioAssay data set” (2004)
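Grown in 96-well plates, cells were treated for 48 hours with each compound at five concentrations. Insufficient inhibition: endpoint recorded as highest concentration tested. GI50: concentration for 50% inhibition of growth.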 Active and inactive are the calls of the source. Cut-off read from the data, not from the text of the source: active = GI50 up to about 1.1 µM and inactive = higher.

Tests used:
Experiment in all cases: inhibition of tumour cell growth, NCI panel, 48 h
COLO 205 = system: COLO 205
HCC 2998 = system: HCC 2998
EKVX = system: EKVX
NCI-H226 = system: NCI-H226
RPMI-8226 = system: RPMI-8226
KM12 = system: KM12
SNB-19 = system: SNB-19
HOP-62 = system: HOP-62
HCT-116 = system: HCT-116
CCRF-CEM = system: CCRF-CEM
UACC-257 = system: UACC-257
A498 = system: A498
786-0 = system: 786-0
A549 = system: A549
SK-MEL-2 = system: SK-MEL-2
DU-145 = system: DU-145
PC-3 = system: PC-3
MDA-MB-435 = system: MDA-MB-435
Hs-578T = system: Hs-578T
NCI/ADR-RES = system: NCI/ADR-RES

Measured: GI50

O=C(Nc1ccc(Cl)cc1)c1cc([N+](=O)[O-])ccc1O
inactive: COLO 205 3.27 µM | HCC 2998 2.32 µM | EKVX 3.85 µM | NCI-H226 3.55 µM | RPMI-8226 2.33 µM | KM12 4.68 µM | SNB-19 3.77 µM | HOP-62 2.49 µM | HCT-116 3.37 µM | CCRF-CEM 2.64 µM | UACC-257 4.84 µM | A498 2.47 µM | 786-0 3.76 µM | A549 4.62 µM | SK-MEL-2 2.61 µM

S=c1nc(Nc2ccc(Cl)cc2)c2c3c(sc2[nH]1)CCCC3
inactive: COLO 205 > 100 µM | HCC 2998 43.4 µM | EKVX > 100 µM | NCI-H226 > 100 µM | DU-145 > 100 µM | RPMI-8226 24.4 µM | KM12 > 100 µM | SNB-19 > 100 µM | HOP-62 > 100 µM | HCT-116 > 100 µM | CCRF-CEM 36.2 µM | UACC-257 > 100 µM | PC-3 57.7 µM | MDA-MB-435 > 100 µM | Hs-578T > 100 µM | A498 > 100 µM | 786-0 > 100 µM | SK-MEL-2 > 100 µM

Cc1cc(N(CCC#N)CCC#N)ccc1/C=C(\N=[N+]=[N-])C(=O)NC(=O)COc1ccccc1
inactive: COLO 205 > 100 µM | HCC 2998 > 100 µM | EKVX > 100 µM | NCI-H226 > 100 µM | RPMI-8226 > 100 µM | KM12 > 100 µM | SNB-19 > 76.6 µM | HOP-62 > 100 µM | HCT-116 > 100 µM | CCRF-CEM > 100 µM | UACC-257 > 100 µM | A498 > 100 µM | 786-0 > 100 µM | A549 > 100 µM | SK-MEL-2 > 73.3 µM

COc1cc(C2SC(=N)Nc3c2c(C)nn3C(=O)Cc2ccccc2)ccc1O (stereo not given)
inactive: COLO 205 > 100 µM | HCC 2998 > 100 µM | EKVX > 100 µM | NCI-H226 > 100 µM | DU-145 > 100 µM | RPMI-8226 > 100 µM | KM12 > 100 µM | SNB-19 > 100 µM | HOP-62 > 100 µM | HCT-116 > 100 µM | CCRF-CEM > 100 µM | UACC-257 > 100 µM | PC-3 > 100 µM | MDA-MB-435 > 100 µM | Hs-578T > 100 µM | A498 > 100 µM | 786-0 > 100 µM | A549 > 100 µM

COc1cc(C(=O)C/C(CCC(=O)Nc2ccc(Cl)cc2C)=N/NC(=O)C(N)=O)ccc1O
inactive: COLO 205 > 100 µM | HCC 2998 > 100 µM | EKVX > 100 µM | NCI-H226 > 100 µM | RPMI-8226 > 100 µM | KM12 > 100 µM | SNB-19 > 100 µM | HOP-62 > 100 µM | HCT-116 > 100 µM | CCRF-CEM > 100 µM | UACC-257 > 100 µM | A498 > 100 µM | 786-0 > 100 µM | A549 > 100 µM | SK-MEL-2 > 100 µM

Cc1cccc(C)c1NC(=O)/C=C/c1ccccc1
inactive: COLO 205 > 100 µM | HCC 2998 > 100 µM | EKVX 67 µM | NCI-H226 20.3 µM | DU-145 > 100 µM | RPMI-8226 > 100 µM | KM12 > 100 µM | SNB-19 > 100 µM | HOP-62 50.1 µM | HCT-116 > 100 µM | CCRF-CEM > 100 µM | UACC-257 > 100 µM | PC-3 > 100 µM | MDA-MB-435 > 100 µM | Hs-578T 24.6 µM | A498 > 100 µM | 786-0 > 100 µM | A549 > 100 µM | SK-MEL-2 > 100 µM

C=CCC(SC)C1=C(C)C(=O)c2ccccc21 (stereo not given)
inactive: HCC 2998 > 10 µM | EKVX > 10 µM | NCI-H226 > 10 µM | DU-145 > 10 µM | RPMI-8226 > 10 µM | KM12 > 10 µM | SNB-19 > 10 µM | HOP-62 > 10 µM | CCRF-CEM 6.55 µM | UACC-257 > 10 µM | PC-3 > 10 µM | MDA-MB-435 > 10 µM | A498 > 10 µM | 786-0 > 10 µM | A549 > 10 µM | SK-MEL-2 > 10 µM

COc1ccccc1N1C(=O)CSC1c1c[nH]c2ccccc12 (stereo not given)
inactive: COLO 205 > 100 µM | HCC 2998 > 100 µM | EKVX > 100 µM | NCI-H226 > 100 µM | DU-145 > 100 µM | RPMI-8226 > 100 µM | NCI/ADR-RES > 100 µM | KM12 > 100 µM | SNB-19 > 100 µM | HOP-62 > 100 µM | HCT-116 > 100 µM | UACC-257 > 100 µM | MDA-MB-435 > 100 µM | Hs-578T > 100 µM | A498 > 100 µM | 786-0 > 100 µM | A549 > 100 µM | SK-MEL-2 > 100 µM

Cc1ccc(NC(=O)C(=O)C(C(=O)c2ccc3ccccc3c2)C2OC(=O)c3ccccc32)c(C)c1 (stereo not given)
inactive: COLO 205 11.1 µM | HCC 2998 8.99 µM | EKVX 19.1 µM | NCI-H226 2.63 µM | RPMI-8226 5.87 µM | KM12 16.4 µM | SNB-19 4.37 µM | HOP-62 6.12 µM | HCT-116 6.35 µM | CCRF-CEM 8.55 µM | UACC-257 12.8 µM | A498 6.1 µM | 786-0 6.93 µM | A549 18 µM | SK-MEL-2 13 µM

COc1cccc(/C=N\NC(=O)C(C)SC(C)C(=O)N/N=C/c2cccc(OC)c2)c1 (stereo not given)
inactive: COLO 205 24.6 µM | HCC 2998 18.5 µM | EKVX 27 µM | NCI-H226 21.2 µM | RPMI-8226 32.7 µM | KM12 31.5 µM | SNB-19 20.8 µM | HOP-62 16 µM | HCT-116 18.4 µM | CCRF-CEM 31.9 µM | UACC-257 59.3 µM | A498 13 µM | 786-0 17.3 µM | A549 14.6 µM | SK-MEL-2 39.2 µM

CCCCn1c(-c2ccccc2)cs/c1=N\NC(=O)Cn1c(C)nc2ccccc21
inactive: COLO 205 17.1 µM | HCC 2998 89.1 µM | EKVX 47.1 µM | NCI-H226 35.8 µM | RPMI-8226 14.7 µM | KM12 70.8 µM | SNB-19 > 100 µM | HOP-62 > 100 µM | HCT-116 97.3 µM | CCRF-CEM 17.9 µM | UACC-257 34.5 µM | A498 > 100 µM | 786-0 > 100 µM | A549 81.1 µM | SK-MEL-2 > 100 µM

Cc1cccc(Cl)c1NC(=O)/C=C/c1ccccc1
inactive: COLO 205 > 100 µM | HCC 2998 74.6 µM | EKVX 49.2 µM | NCI-H226 > 100 µM | DU-145 67.6 µM | RPMI-8226 32.3 µM | KM12 74.5 µM | SNB-19 > 100 µM | HOP-62 74.6 µM | HCT-116 39.4 µM | CCRF-CEM > 100 µM | UACC-257 > 100 µM | PC-3 > 100 µM | MDA-MB-435 > 100 µM | Hs-578T 33 µM | A498 > 100 µM | 786-0 36.3 µM | A549 94 µM | SK-MEL-2 > 100 µM

CCNCCNC(=O)c1ccc(I)cc1
inactive: HCC 2998 > 100 µM | EKVX > 100 µM | NCI-H226 6.22 µM | RPMI-8226 > 100 µM | NCI/ADR-RES > 100 µM | KM12 > 100 µM | SNB-19 > 100 µM | CCRF-CEM > 100 µM | PC-3 > 100 µM | Hs-578T 81.8 µM | A498 > 100 µM | 786-0 > 100 µM | A549 > 100 µM

Cc1ccc(NC2=CC(=O)C(NO)c3ccccc32)cc1 (stereo not given)
inactive: COLO 205 2.81 µM | HCC 2998 7.26 µM | EKVX 2.15 µM | NCI-H226 19.9 µM | DU-145 2.56 µM | NCI/ADR-RES 2.08 µM | KM12 3.32 µM | SNB-19 3.18 µM | HOP-62 3.39 µM | HCT-116 2.47 µM | UACC-257 1.73 µM | MDA-MB-435 1.89 µM | A498 16.3 µM | 786-0 5.16 µM | A549 3.09 µM | SK-MEL-2 2.23 µM

O=Cc1c(O)c(C(=O)Nc2ccc3[nH]c(=O)[nH]c3c2)cc2ccccc12
inactive: COLO 205 > 100 µM | HCC 2998 > 100 µM | EKVX > 100 µM | NCI-H226 > 100 µM | RPMI-8226 > 100 µM | KM12 > 100 µM | SNB-19 > 100 µM | HOP-62 > 100 µM | HCT-116 > 100 µM | CCRF-CEM > 100 µM | UACC-257 > 100 µM | A498 > 100 µM | 786-0 > 100 µM | A549 > 100 µM | SK-MEL-2 > 100 µM

N#Cc1c(-c2ccccc2)c(/C=N/c2cccc(C(F)(F)F)c2)c(=O)n2c1[nH]c1ccccc12
inactive: COLO 205 > 100 µM | HCC 2998 30.8 µM | EKVX 19.1 µM | NCI-H226 26.7 µM | RPMI-8226 6.35 µM | NCI/ADR-RES 25.1 µM | KM12 19.4 µM | SNB-19 30.5 µM | HOP-62 30.5 µM | HCT-116 29.6 µM | CCRF-CEM 40.4 µM | UACC-257 32.5 µM | PC-3 31 µM | MDA-MB-435 39.5 µM | A498 34.4 µM | 786-0 36.1 µM | A549 23.6 µM | SK-MEL-2 22.1 µM

COc1cc(C(=O)C/C(CCCC(=O)Nc2ccccc2[N+](=O)[O-])=N/NC(=O)c2cc3ccccc3cc2O)ccc1O
inactive: COLO 205 21.7 µM | HCC 2998 28.9 µM | EKVX 16.5 µM | NCI-H226 > 81.7 µM | RPMI-8226 > 46.9 µM | KM12 24.5 µM | SNB-19 > 80.2 µM | HOP-62 94.8 µM | HCT-116 34.4 µM | CCRF-CEM 8 µM | UACC-257 27.7 µM | A498 > 100 µM | 786-0 32.4 µM | A549 54.5 µM | SK-MEL-2 > 42.7 µM
